In patent US5532400A, “2,6-di-alkyl-4-silyl-phenols as antiatheroscelerotic agents” (Merrell Pharmaceuticals Inc., priority 1994, dated 1996):

Tested on: human LDL
Experiment: Inhibition of LDL lipid peroxidation (cupric sulfate-induced, thiobarbituric acid assay)
Type: biochemical
Details: 250 μg human LDL, test compound 30 min at 42° C., cupric sulfate 12.5 μM, 37° C., 2.5 hours, read-out: ID50 (concentration of test compound required to inhibit 50% of LDL lipid peroxidation)
Experimental: The degree of inhibition of LDL lipid peroxidation was determined by the method of Yagi et al. [Vitamins 39, 105 (1968)].
A 0.5 mL solution containing 250 micrograms (μg) of human LDL was incubated with the test compound, in amounts varying from 0 to 30 μg, for 30 minutes at 42° C. To this mixture was added 1 mL of a cupric sulfate solution (final concentration 12.5 μM) and the mixture was incubated at 37° C. for 2.5 hours. The amount of peroxidation of LDL lipid was determined by the thiobarbituric acid assay. The concentration of test compound required to inhibit 50% of LDL lipid peroxidation (ID50) was determined.

CC(C)(C)c1cc(SC[Si](C)(C)C)cc(C(C)(C)C)c1O [Compound A]
IC50: 2800 nM

CC(C)(C)c1cc(SC[Si](C)(C)c2ccccc2)cc(C(C)(C)C)c1O [Compound B]
IC50: 3000 nM
